From ChEMBL document CHEMBL1148761, “2-aroylindoles and 2-aroylbenzofurans with N-hydroxyacrylamide substructures as a novel series of rationally designed histone deacetylase inhibitors” (J Med Chem, 2007)
Each block holds one compound with its values, some of them ahead of it. The source made the active and inactive calls. The rule behind the calls is not given here.

Experiments:
[1] = biological target: Histone deacetylase; experiment: Inhibition of HDAC in HeLa cells; assay type: cell-based, Homo sapiens
[2] = biological target: Histone deacetylase; experiment: Inhibition of HDAC in HeLa cells assessed as induction of human histone H3 hyperacetylation; assay type: cell-based
[3] = system: HeLa; experiment: Cytotoxicity against HeLa cells; assay type: functional, cell-based; details: Homo sapiens
[4] = biological target: Histone deacetylase 1 (Homo sapiens, UniProt Q13547)
Sequence of Histone deacetylase 1 (Q13547 whole entry): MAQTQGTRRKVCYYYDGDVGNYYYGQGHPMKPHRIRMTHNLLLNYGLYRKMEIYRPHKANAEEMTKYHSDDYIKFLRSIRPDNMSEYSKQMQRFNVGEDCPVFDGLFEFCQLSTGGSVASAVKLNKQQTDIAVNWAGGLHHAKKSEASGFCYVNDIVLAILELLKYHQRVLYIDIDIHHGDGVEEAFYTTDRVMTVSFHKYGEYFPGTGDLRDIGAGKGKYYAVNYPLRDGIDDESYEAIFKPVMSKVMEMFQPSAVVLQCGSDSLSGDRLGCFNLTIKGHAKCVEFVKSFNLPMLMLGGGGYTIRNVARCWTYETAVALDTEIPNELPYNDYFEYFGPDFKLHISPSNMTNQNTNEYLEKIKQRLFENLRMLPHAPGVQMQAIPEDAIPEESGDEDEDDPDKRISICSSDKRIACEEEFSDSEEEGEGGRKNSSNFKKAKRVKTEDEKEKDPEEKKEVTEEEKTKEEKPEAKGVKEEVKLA
Description: Inhibition of recombinant HDAC1 in HeLa cells

[5] = biological target: Histone deacetylase 3 (Homo sapiens, UniProt O15379); experiment: Inhibition of recombinant HDAC3
Sequence of Histone deacetylase 3 (O15379 whole entry): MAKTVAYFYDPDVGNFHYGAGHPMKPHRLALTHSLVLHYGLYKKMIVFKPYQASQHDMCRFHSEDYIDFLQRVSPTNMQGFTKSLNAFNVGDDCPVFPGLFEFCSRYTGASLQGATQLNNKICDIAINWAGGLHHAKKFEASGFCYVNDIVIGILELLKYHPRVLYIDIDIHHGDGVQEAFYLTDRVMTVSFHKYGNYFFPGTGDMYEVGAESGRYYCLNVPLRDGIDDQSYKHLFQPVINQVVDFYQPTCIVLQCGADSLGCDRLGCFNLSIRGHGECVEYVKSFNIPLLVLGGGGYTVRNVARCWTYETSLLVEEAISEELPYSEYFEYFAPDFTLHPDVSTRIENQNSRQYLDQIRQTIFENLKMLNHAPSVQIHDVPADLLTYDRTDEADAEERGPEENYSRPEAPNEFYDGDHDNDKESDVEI

[6] = biological target: Histone deacetylase 8 (Homo sapiens, UniProt Q9BY41); experiment: Inhibition of recombinant HDAC8
Sequence of Histone deacetylase 8 (Q9BY41 whole entry): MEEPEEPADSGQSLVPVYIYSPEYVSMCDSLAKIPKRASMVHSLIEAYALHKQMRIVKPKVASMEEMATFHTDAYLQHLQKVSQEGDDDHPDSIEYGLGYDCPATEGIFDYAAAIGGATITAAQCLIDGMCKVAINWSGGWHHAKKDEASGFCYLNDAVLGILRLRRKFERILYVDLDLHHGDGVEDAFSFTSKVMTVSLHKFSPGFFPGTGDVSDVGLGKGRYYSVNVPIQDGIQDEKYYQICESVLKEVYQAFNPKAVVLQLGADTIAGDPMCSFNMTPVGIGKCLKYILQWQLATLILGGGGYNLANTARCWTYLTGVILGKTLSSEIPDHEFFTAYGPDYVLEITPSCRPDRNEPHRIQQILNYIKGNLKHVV

[7] = system: NCI-H460; experiment: Cytotoxicity against human NCI H460 cells; assay type: functional, cell-based
[8] = system: A549; experiment: Cytotoxicity against human A549 cells; assay type: functional, cell-based
[9] = system: NCI; experiment: Cytotoxicity against human NCI H69 cells; assay type: functional, cell-based
[10] = system: MCF7; experiment: Cytotoxicity against human MCF7 cells; assay type: functional, cell-based
[11] = system: MDA-MB-468; experiment: Cytotoxicity against human MDA-MB-468 cells; assay type: functional, cell-based
[12] = system: MDA-MB-231; experiment: Cytotoxicity against human MDA-MB-231cells; assay type: functional, cell-based
[13] = system: SK-BR-3; experiment: Cytotoxicity against human SKBR3 cells; assay type: functional, cell-based
[14] = system: SK-OV-3; experiment: Cytotoxicity against human SK-OV-3 cells; assay type: functional, cell-based
[15] = system: A2780; experiment: Cytotoxicity against human A2780 cells; assay type: functional, cell-based
[16] = Cytotoxicity against human non-proliferating RKOp21 cells; assay type: functional, cell-based
[17] = Cytotoxicity against human proliferating RKOp21 cells; assay type: functional, cell-based
[18] = system: HCT-15; experiment: Cytotoxicity against human HCT15 cells; assay type: functional, cell-based
[19] = system: HCT-116; experiment: Cytotoxicity against human HCT116 cells; assay type: functional, cell-based
[20] = system: PC-3; experiment: Cytotoxicity against human PC3 cells; assay type: functional, cell-based
[21] = system: ASPC1; experiment: Cytotoxicity against human AsPC1 cells; assay type: functional, cell-based
[22] = system: RKO; experiment: Induction of human histone H3 hyperacetylation in RKO cells at 1 to 3 uM; assay type: functional, cell-based
[23] = system: CAL-27; experiment: Cytotoxicity against human Cal27 cells; assay type: functional, cell-based
[24] = system: A-431; experiment: Cytotoxicity against human A431 cells; assay type: functional, cell-based
[25] = Cytotoxicity against human Hec-1-A cells; assay type: functional, cell-based
[26] = system: SAOS-2; experiment: Cytotoxicity against human Saos2 cells; assay type: functional, cell-based
[27] = Cytotoxicity against human U87MG cells; assay type: functional, cell-based, U-87MG ATCC; details: U-87 MG
[28] = cells; assay type: functional, cell-based; details: Homo sapiens, WM 266-4
Description: Cytotoxicity against human WM 266-4 cells

[29] = system: K562; experiment: Cytotoxicity against human K562 cells; assay type: functional, cell-based
[30] = system: EOL1; experiment: Cytotoxicity against human EOL1cells; assay type: functional, cell-based
[31] = system: CCRF-CEM; experiment: Cytotoxicity against human CCRF-CEM cells; assay type: functional, cell-based
[32] = system: CCRF-CEM; experiment: Cytotoxicity against vincristine resistant human CCRF-CEM cells; assay type: functional, cell-based
[33] = system: A549; experiment: Induction of apoptosis in A549 cells at 10 uM; assay type: functional, cell-based; details: Homo sapiens
[34] = system: A549; experiment: Induction of human histone H3 hyperacetylation in A549 cells at 1 to 3 uM; assay type: functional, cell-based
[35] = system: RKO; experiment: Inhibition of histone-H3S phosphorylation in human RKO cells at 10 uM; assay type: cell-based
[36] = system: 549; experiment: Inhibition of histone-H3S phosphorylation in […] cells at 10 uM; assay type: cell-based

IC50 [1]: 330 nM | EC50 [2]: 2570 nM | IC50 [4]: 300 nM
Compound: COc1cccc(C(=O)c2cc3cc(/C=C/C(=O)NO)ccc3[nH]2)c1
IC50 [3]: 2960 nM

Compound: O=C(/C=C/c1cccc(C(=O)c2cc3ccccc3o2)c1)NO
IC50 [1]: 57 nM | EC50 [2]: 290 nM | IC50 [3]: 680 nM | IC50 [5]: 79 nM | IC50 [6]: 79 nM | IC50 [7]: 250 nM | IC50 [8]: 770 nM | IC50 [9]: 190 nM | IC50 [10]: 1300 nM | IC50 [11]: 500 nM | IC50 [12]: 730 nM | IC50 [13]: 310 nM | IC50 [14]: 740 nM | IC50 [15]: 350 nM | IC50 [16]: 3690 nM | IC50 [17]: 960 nM | IC50 [18]: 740 nM | IC50 [19]: 360 nM | IC50 [20]: 160 nM | IC50 [21]: 3500 nM | Activity [22]: Active | IC50 [23]: 660 nM | IC50 [24]: 590 nM | IC50 [25]: 470 nM | IC50 [26]: 920 nM | IC50 [27]: 1100 nM | IC50 [28]: 310 nM | IC50 [29]: 150 nM | IC50 [30]: 49 nM | IC50 [31]: 180 nM | IC50 [32]: 240 nM | Activity [33]: Active | Activity [34]: Active | Activity [35]: Active | Activity [36]: Active | IC50 [4]: 52 nM

IC50 [1]: 260 nM | EC50 [2]: 6900 nM | IC50 [4]: 880 nM
Compound: COc1ccc2c(c1)cc(C(=O)c1ccc(/C=C/C(=O)NO)cc1)n2S(=O)(=O)c1ccccc1
IC50 [3]: 5420 nM

IC50 [1]: 830 nM | EC50 [2]: 2650 nM | IC50 [4]: 1200 nM
Compound: O=C(/C=C/c1ccc2oc(C(=O)c3ccccc3)cc2c1)NO
IC50 [3]: 5610 nM

IC50 [1]: 270 nM | EC50 [2]: 5700 nM | IC50 [4]: 690 nM
Compound: O=C(/C=C/c1ccc(C(=O)c2cc3ccccc3n2S(=O)(=O)c2ccccc2)cc1)NO
IC50 [3]: 5420 nM

Compound: O=C(CCCCCCC(=O)Nc1ccccc1)NO [VORINOSTAT]
IC50 [12]: 2200 nM | IC50 [14]: 2200 nM | IC50 [26]: 2300 nM

IC50 [1]: 340 nM | EC50 [2]: 3770 nM | IC50 [4]: 250 nM
Compound: O=C(/C=C/c1ccc2[nH]c(C(=O)c3ccccc3)cc2c1)NO
IC50 [3]: 3970 nM

IC50 [1]: 650 nM | EC50 [2]: 4100 nM | IC50 [4]: 950 nM
Compound: COc1cccc(C(=O)c2cc3cc(/C=C/C(=O)NO)ccc3o2)c1
IC50 [3]: 4110 nM

IC50 [1]: 120 nM | EC50 [2]: 2780 nM | IC50 [4]: 230 nM
Compound: COc1cccc(C(=O)c2cc3cc(/C=C/C(=O)NO)ccc3n2S(=O)(=O)c2ccccc2)c1
IC50 [3]: 3340 nM

IC50 [1]: 310 nM | EC50 [2]: 2970 nM | IC50 [4]: 410 nM
Compound: O=C(/C=C/c1ccc(C(=O)c2cc3ccccc3[nH]2)cc1)NO
IC50 [3]: 4750 nM

Compound: O=C(/C=C/c1cccc(C(=O)c2cc3ccccc3[nH]2)c1)NO
IC50 [1]: 39 nM | EC50 [2]: 1300 nM | IC50 [3]: 850 nM | IC50 [5]: 50 nM | IC50 [6]: 32 nM | IC50 [7]: 260 nM | IC50 [8]: 970 nM | IC50 [9]: 330 nM | IC50 [10]: 1900 nM | IC50 [11]: 550 nM | IC50 [12]: 900 nM | IC50 [13]: 530 nM | IC50 [14]: 900 nM | IC50 [15]: 340 nM | IC50 [16]: 2570 nM | IC50 [17]: 1050 nM | IC50 [18]: 770 nM | IC50 [19]: 360 nM | IC50 [20]: 210 nM | IC50 [21]: 3900 nM | Activity [22]: Active | IC50 [23]: 750 nM | IC50 [24]: 600 nM | IC50 [25]: 620 nM | IC50 [26]: 1000 nM | IC50 [27]: 1000 nM | IC50 [28]: 310 nM | IC50 [29]: 170 nM | IC50 [30]: 73 nM | IC50 [31]: 200 nM | IC50 [32]: 250 nM | Activity [33]: Active | Activity [34]: Active | Activity [35]: Active | Activity [36]: Active | IC50 [4]: 31 nM

IC50 [1]: 34 nM | EC50 [2]: 1000 nM | IC50 [4]: 89 nM
Compound: O=C(/C=C/c1cccc(C(=O)c2cc3ccccc3n2S(=O)(=O)c2ccccc2)c1)NO
IC50 [3]: 1730 nM

IC50 [1]: 90 nM | EC50 [2]: 2670 nM | IC50 [4]: 200 nM
Compound: O=C(/C=C/c1ccc2c(c1)cc(C(=O)c1ccccc1)n2S(=O)(=O)c1ccccc1)NO
IC50 [3]: 2880 nM

IC50 [1]: 280 nM | EC50 [2]: 4270 nM | IC50 [4]: 320 nM
Compound: COc1ccc2[nH]c(C(=O)c3ccc(/C=C/C(=O)NO)cc3)cc2c1
IC50 [3]: 3440 nM

IC50 [1]: 1000 nM | EC50 [2]: 7500 nM | IC50 [4]: 1100 nM
Compound: COc1cc(C(=O)c2cc3cc(/C=C/C(=O)NO)ccc3o2)cc(OC)c1OC
IC50 [3]: 5770 nM

IC50 [1]: 450 nM | EC50 [2]: 1100 nM | IC50 [4]: 520 nM
Compound: O=C(/C=C/c1ccc(C(=O)c2cc3ccccc3o2)cc1)NO
IC50 [3]: 2600 nM
